pEC50, pIC50: −log10 of the molar value. Several values for one entry are separate records, joined by “and”; a condition that tells them apart may be missing. Identical values can stand only once. Like-named read-outs stand apart in the source and are kept apart here.
Experiments:
DBF mice = test: Mouse hypercalcemia assay; settings: oral gavage for 6 days, serum ionized calcium 6 hours after last dosing; Table 1
Description: The Mouse Hypercalcemia Assay
The Mouse Hypercalcemia Assay is a six day hypercalcemia test for toxicity and selectivity.
(4) Materials and Method for the Mouse Hypercalcemia Assay:
Weanling, virus-antibody-free, five to six weeks old female DBF mice (Harlan, Indianapolis, Ind.) are used for all the studies. Animals are allowed to acclimate to local vivarium conditions for 2 days. […] The animals then are divided into groups with 4-5 mice per group. Different doses of test compounds prepared in 10% Ethanol and 90% sesame oil are administered to mice orally via gavage for 6 days. 1α-25(OH)2D3 0.5 μg/kg/d was also given to one group of mice as the positive control. […] Raw data of group differences is assessed by analysis of variance (ANOVA) using Fisher's protected least significant difference (PLSD) where the significance level was P<0.05.

KERtr cells = test: Keratinocyte proliferation assay; format: cell-based; settings: Homo sapiens
Description: 5. The Keratinocyte Proliferation Assay
This Assay is indicative for the treatment of psoriasis.
(5) The Keratinocyte Proliferation Assay:
KERtr cells (Human skin keratinocyte transformed with a retrovirus vector, obtained from ATCC) were plated in 96-well flat-bottomed plates (3000 cells/well) in 100 μl keratinocyte serum free medium supplemented with bovine pituitary extract in the absence of EGF (Life Technologies, Rockville, Md.) and incubated at 37° C. for two days. The cells were treated with various concentrations of VDR ligands (ten-fold serial dilution from 10,000 nM to 0.1 nM in triplicate), dissolved in 100 μl keratinocyte serum free medium supplemented with bovine pituitary extract in the absence of EGF and incubated at 37° C. for 72 hr. […] Potency values (IC50) values were determined as the concentration (nM) of compound that elicited a half-maximal response.

RXR-VDR heterodimer = target: T1, RXR-VDR heterodimer (Homo sapiens, UniProt P11473); test: RXR-VDR heterodimerization assay (SaOS-2 cells); format: cell-based; settings: Gal4-RXR / VP16-VDR-LBD luciferase reporter, Table 1
T1 construct: Add the Gal4-RXR-DEF and VP16-VDR-LBD; expressed in transfected cells; host or cells: SaOS-2 cells
T1 sequence (P11473 127-423 limits assumed): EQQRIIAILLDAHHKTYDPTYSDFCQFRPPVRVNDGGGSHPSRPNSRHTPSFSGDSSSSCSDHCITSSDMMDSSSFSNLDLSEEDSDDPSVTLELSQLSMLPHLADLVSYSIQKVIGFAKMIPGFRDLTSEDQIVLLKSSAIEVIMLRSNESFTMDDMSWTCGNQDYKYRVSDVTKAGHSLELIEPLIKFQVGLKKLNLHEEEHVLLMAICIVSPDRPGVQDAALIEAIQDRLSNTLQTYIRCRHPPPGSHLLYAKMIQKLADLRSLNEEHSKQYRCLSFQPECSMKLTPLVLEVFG
T1 sequence (P19793 201-462 partner limits assumed): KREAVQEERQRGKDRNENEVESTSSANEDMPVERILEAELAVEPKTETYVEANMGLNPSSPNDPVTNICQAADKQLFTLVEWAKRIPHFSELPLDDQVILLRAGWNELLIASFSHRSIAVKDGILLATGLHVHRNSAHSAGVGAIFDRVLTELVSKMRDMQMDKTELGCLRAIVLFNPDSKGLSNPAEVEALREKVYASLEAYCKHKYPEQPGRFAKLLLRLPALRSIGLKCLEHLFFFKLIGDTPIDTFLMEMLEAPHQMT
Description: 1. The RXR-VDR HeterodimerAssay:
This assay provides the VDR activity of a test compound.
(1) Materials and Method for RXR-VDR Heterodimerization Assay:
Luciferase Assay Reagent: • Use Steady-Glo Luciferase Reagent from Promega (Cat #E2550) Consists of: a. E2533 Assay Substrate, lyopholized product and b. E2543 Assay Buffer. • Thaw at room temperature • Store Cell Harvesting Aspirate media from culture flask, rinse cells with HBSS and aspirate. Add trypsin and incubate. When cells appear detached, resuspend cells in growth media. Transfer into a new flask with fresh growth media for passaging the cells. Plate well plates and two extra plates A. Cell Count Mix the cell suspension using pipette Use Hematocytometer to count the cells Load cell suspension onto the hemocytometer chamber Count cells. […] In sterile flask add cell suspension to plating media. Mix. Add cells/well. Place the cells in the incubator. Cells should be about 75% confluent prior to transfection. DAY 2: Transfection Step 1: DNA and Media Add plain DMEM media to tubes for mixing the DNA Add the Reporter gene pFR-LUC Add the Gal4-RXR-DEF and VP16-VDR-LBD Step 2: FuGENE and Media Prepare plain DMEM media in a ubes for mixing FuGENE Add FuGENE 6 Transfection Reagent Incubate Step 3: FuGENE, DNA and Media Complex Add FuGENE Media complex from step 2 to DNA Media complex from step 1 Incubate Step 4: FuGENE, DNA and Media Complex to-well plate Add FuGENE-DNA-Media complex from step 3 to each plate Incubate. […] Day 4: Luciferase Assay Read the plates after drug treatment Remove part of media from all the wells and leave remainder Add Steady-Glo Luciferase Reagent mixture/wells Incubate Count each well using a Luminescence counter, Top Count NXT by Packard
Set a delay between plates to reduce the background.

VDR = target: T2, VDR (Homo sapiens, UniProt P11473); test: Caco-2 cell co-transfection assay (VDR CTF); format: cell-based; settings: Caco-2 cells, pGal4-VDR-LBD luciferase co-transfection; Table 1
T2 construct: the receptor expression vector pGal4-VDR-LBD (10 ng); expressed in transfected cells; host or cells: Caco-2 cells
T2 sequence (P11473 127-423 limits assumed): T1 sequence (P11473 127-423 limits assumed)
Description: 2. The Caco-2 Cell Co-Transfection Assay:
The Caco-2 cell assay is an indicator for the undesirable condition of hypercalcemia. This co-transfection assay is a surrogate assay for in vivo calcemic activity of VDR ligands. […] Preferred assay results are greater than 1000 nM.
(2) Materials and Method for The Caco-2 Cell Assay:
Caco-2 cells, grown in phenol red free, DMEM (Invitrogen, Carlsbad, Calif.) containing 10% charcoal-stripped FCS (Hyclone, Logan, Utah), were transfected with Fugene 6 reagent (Roche Diagnostics, Indianapolis, Ind.). Cells (5000/well) were plated 18 h before transfection in a 96 well plate. The Cells were transfected with Gal4-responsive reporter pFRLuc (150 ng, Stratagene, La Jolla Calif.) and the receptor expression vector pGal4-VDR-LBD (10 ng), along with Fugene 6 reagent (0.2 μl/well). The DNA-Fugene complex was formed by incubating the mixture for 30 min at room temperature. The cells were transfected in triplicate for 5 h, and treated with various concentrations of VDR ligands (form 0.01 nM to 10,000 nM concentration range) 18 h post-transfection. The luciferase activity was quantified using Steady-Glo reagent kit (Promega, Madison, Wis.) as per manufacturer's specifications.

rat osteocalcin promoter = test: OCN (osteocalcin) promoter assay; format: cell-based; settings: RG-15 (ROS 17/2.8) cells, 48 hr treatment, Table 1
Description: 3. The OCN (Osteocalcin) Promoter Assay
The OCN Promoter Assay is an indicator and marker for osteoporosis. […] Preferred assay results are less than 50 nM.
(3) Materials and Method for the OCN Promoter Assay:
The activation of osteocalcin by VDR ligands was evaluated in a rat osteoblast-like cell line RG-15 (ROS 17/2.8) stably expressing rat osteocalcin promoter fused with luciferase reporter gene. […] Confluent RG-15 cells maintained in DMEM/F-12 medium (3:1) containing 5% FBS, 300 μg/ml G418 and at 37° C. under 5% CO2/95% air atmosphere were trypsinized (0.25% trypsin) and plated into white opaque 96-well cell culture plates (25000 cells/well). After 24 hr, cells (in DMEM/F-12 medium+2% FBS) were treated with various concentrations of compounds, dissolved in DMSO. The final DMSO concentration remained at 0.01% (v/v). After 48 hr treatment, the medium was removed, cells were lysed with 50 μl of lysis buffer (From Luciferase reporter assay system, Roche Diagnostics, Indianapolis, Ind.) and assayed for luciferase activity using the Luciferase Reporter Gene Assay kit from Boehringer Mannheim as per manufacturer's specifications.

IL-10 = test: Human IL-10 induction assay in PBMCs; format: cell-based; settings: PBMC
Description: 6. The IL-10 Induction Assay
This is an in vitro efficacy assay for psoriasis, abscess and adhesion. Psoriasis involves both keratinocytes and immune cells. IL-10 is a unique cytokine because it is anti-inflammatory and immunosuppressive. This assay tells us whether a VDRM is able to function as an agonist in PBMCs ([…]) or not.
(6) Materials and Method for Human IL-10 Induction Assay:
Isolation of Peripheral Blood Mononuclear Cells (PBMCs):
Stimulation of PBMC: • L. Prepare TPA in DMSO. • M. Dissolve PHA in water. • N. Plate TPA/PHA treated PBMCs in well plates. • O. Incubate.
Sample Collection and Assay: • S. Remove all the cells by centrifugation and assay the supernatant for IL-10 by immunoassay. • T. Perform IL-10 assay using anti-human IL-10 antibody coated beads, as described by the manufacturer (Linco Research Inc., St. Charles, Mo.). (8) CaT1 Assay

[1] = 72 h, BrdU incorporation, Table 2, read-out: Kera. Prolif. IC50
[2] = TPA/PHA treated human PBMCs, Table 2

SMILES | Mouse Hypercal (DBF mice) | pIC50 (KERtr cells; [1]) | pEC50 (RXR-VDR heterodimer) | EC50 (VDR) | pEC50 (rat osteocalcin promoter) | pEC50 (rat osteocalcin promoter; Rattus norvegicus, 48 h) | pIC50 (IL-10; [2]) | pIC50 (KERtr cells; comparison compounds, Table 4, read-out: Kera. Prolif. IC50) | pIC50 (IL-10; human PBMCs, comparison compounds, Table 4)
CCC(CC)(c1ccc(OCC(=O)C(C)(C)C)c(C)c1)c1cc2cc(C(=O)O)ccc2s1 [Ex 17, 2-{1-[4-(3,3-dimethyl-2-oxo-butoxy)-3-methyl-phenyl]-1-ethyl-propyl}-benzo[b]thiophene-5-carboxylic acid] | >300 µg/kg/day | 6.39 | 6.57 and 7.29 | 631 nM | 8.52 | 8.40 |  |  | 
CCC(CC)(c1ccc(OCC(O)C(C)(C)C)c(C)c1)c1cc2cc(C(=O)O)ccc2s1 (stereo not shown) [Ex 18, 2-{1-ethyl-1-[4-(2-hydroxy-3,3-dimethyl-butoxy)-3-methyl-phenyl]-propyl}-benzo[b]thiophene-5-carboxylic acid] |  | 8.74 |  | 748 nM | 8.89 | 8.62 | 7.05 |  | 
CCC(CC)(c1ccc(OCC(O)C(C)(C)C)c(C)c1)c1cc2cc(C(=O)NCC(=O)O)ccc2s1 (stereo not shown) [Ex 20, [(2-{1-Ethyl-1-[4-(2-hydroxy-3,3-dimethyl-butoxy)-3-methyl-phenyl]-propyl}-benzo[b]thiophene-5-carbonyl)-amino]-acetic acid] |  | 7.01 | 7.62 | 314 nM |  | 8.30 | 6.41 |  | 
CCC(CC)(c1ccc(OCC(=O)C(C)(C)C)c(C)c1)c1cc2cc(C(=O)N(C)C)ccc2s1 [Ex 21, 2-{1-[4-(3,3-Dimethyl-2-oxo-butoxy)-3-methyl-phenyl]-1-ethyl-propyl}-benzo[b]thiophene-5-carboxylic acid dimethylamide] | >1000 µg/kg/day | 6.79 | 6.87 and 7.62 | 708 nM | 7.32 | 7.54 |  |  | 
CCC(CC)(c1ccc(OCC(=O)C(C)(C)C)c(C)c1)c1ccc2cc(C(=O)O)sc2c1 [Ex. 1, 6-{1-[4-(3,3-dimethyl-2-oxo-butoxy)-3-methyl-phenyl]-1-ethyl-propyl}-benzo[b]thiophene-2-carboxylic acid] | <300 µg/kg/day |  |  | 432 nM | 9.00 | 8.70 | 6.96 |  | 
CCC(CC)(c1ccc(OCC(O)C(C)(C)C)c(C)c1)c1ccc2cc(C(=O)O)sc2c1 (stereo not shown) [Ex. 2, 6-{1-ethyl-1-[4-(2-hydroxy-3,3-dimethyl-butoxy)-3-methyl-phenyl]-propyl}-benzo[b]thiophene-2-carboxylic acid] |  | 9.00 | 7.52 | 411 nM |  | 9.00 | 7.62 |  | 
CCC(CC)(c1ccc(OCC(=O)C(C)(C)C)c(C)c1)c1ccc2cc(C(=O)N(C)C)sc2c1 [Ex. 3, 6-{1-[4-(3,3-Dimethyl-2-oxo-butoxy)-3-methyl-phenyl]-1-ethyl-propyl}-benzo[b]thiophene-2-carboxylic acid dimethylamide] |  | < 6.00 | 6.35 and 7.17 | 869 nM |  |  | 6.45 |  | 
CCC(CC)(c1ccc(OCC(=O)C(C)(C)C)c(C)c1)c1ccc2cc(C(=O)NCC(=O)O)sc2c1 [Ex. 5, [(6-{1-[4-(3,3-dimethyl-2-oxo-butoxy)-3-methyl-phenyl]-1-ethyl-propyl}-benzo[b]thiophene-2-carbonyl)-amino]-acetic acid] | >300 µg/kg/day | 8.40 |  | 342 nM |  | 9.00 | 8.22 |  | 
CCC(CC)(c1ccc(OCC(O)C(C)(C)C)c(C)c1)c1ccc2cc(C(=O)NCC(=O)O)sc2c1 (stereo not shown) [Ex. 6, [(6-{1-ethyl-1-[4-(2-hydroxy-3,3-dimethyl-butoxy)-3-methyl-phenyl]-propyl}-benzo[b]thiophene-2-carbonyl)-amino]-acetic acid] |  | 8.40 |  | 331 nM |  |  | 8.40 |  | 
CCC(CC)(c1ccc(OCC(O)C(C)(C)C)c(C)c1)c1cc2ccc(C(=O)O)cc2s1 (stereo not shown) [Ex. 8, 2-{1-Ethyl-1-[4-(2-hydroxy-3,3-dimethyl-butoxy)-3-methyl-phenyl]-propyl}-benzo[b]thiophene-6-carboxylic acid] |  | 9.00 |  | 409 nM |  |  | 7.82 |  | 
C=C1/C(=C\C=C2/CCC[C@]3(C)[C@@H]([C@H](C)/C=C/[C@@H](O)C4CC4)CC[C@@H]23)C[C@@H](O)C[C@@H]1O [FF, calcipotriol, reference compound] |  |  |  |  |  |  |  | 6.99 | 9.30

— patent publication US7897789B2, “Vitamin D receptor modulators” (Eli Lilly and Company, priority 2003, dated 2011)
